# According to patent publication US9464092B2, “Transient protection of normal cells during chemotherapy” (G1 Therapeutics, Inc., priority 2013, dated 2016):
# How the values were obtained:
# [1] = test system: hematopoietic cells (bone marrow); assay: EdU incorporation in hematopoietic cell lineages of C57Bl/6 mice; assay type: in vivo; conditions: 150 mg/kg oral gavage, 12 hours
# Protocol: Ten-hours later, all mice were given a single i.p. injection of 100 mcg EdU (5-ethynyl-2′-deoxyuridine) to label cells in S-phase of the cell cycle. All treated mice were euthanized 2 hours after EdU injection, bone marrow cells were harvested and processed for flow cytometric analysis of EdU-incorporation (FIG. 13).
# [2] = test system: telomerized human diploid fibroblasts (tHDFs); assay: γ-H2AX DNA damage assay in tHDF cells with chemotherapy; assay type: cell-based; conditions: pretreatment before carboplatin, doxorubicin, etoposide, camptothecin or paclitaxel
# Protocol: Cell survival was determined by Cell TiterGlo assay per manufacturer's recommendations. For both γ-H2AX and caspase 3/7 assays, cells were plated and allowed to become adherent for 24 hours. […] For γ-H2AX, cells were harvested for analysis 8 hours after chemotherapy exposure. For the γ-H2AX assay, cells were fixed, permeabilized, and stained with anti-γ-H2AX as per the γ-H2AX Flow Kit (Millipore) and quantitated by flow cytometry. Data was analyzed using FlowJo 2.2 software developed by TreeStar, Inc. For the in vitro caspase 3/7 assay, cells were harvested 24 hours post chemotherapy treatment. Caspase 3/7 activation was measured using the Caspase-Glo® 3/7 Assay System (Promega) per manufacturer's recommendations.
# [3] = test system: RB-intact, Cdk4/6-dependent cell line (WM2664 or tHS68); assay: EdU proliferation, RB-intact Cdk4/6-dependent cell line; conditions: 24 hours
# [4] = Metabolic stability in liver microsomes; assay type: in vitro ADME, human, dog, rat, monkey, and mouse; conditions: each of the species tested
# Protocol: Human, mouse, and dog liver microsomes were purchased from Xenotech, and Sprague-Dawley rat liver microsomes were prepared by Absorption Systems. The reaction mixture comprising 0.5 mg/mL of liver microsomes, 100 mM of potassium phosphate, pH 7.4, 5 mM of magnesium chloride, and 1 uM of test compound was prepared. The test compound was added into the reaction mixture at a final concentration of 1 uM. An aliquot of the reaction mixture (without cofactor) was incubated in shaking water bath at 37 deg. C. for 3 minutes. The control compound, testosterone, was run simultaneously with the test compound in a separate reaction. The reaction was initiated by the addition of cofactor (NADPH), and the mixture was then incubated in a shaking water bath at 37 deg. C. Aliquots (100 μL) were withdrawn at 0, 10, 20, 30, and 60 minutes for the test compound and 0, 10, 30, and 60 minutes for testosterone. […] Test compound samples were analyzed using the Orbitrap high resolution mass spectrometer to quantify the disappearance of parent test compound and detect the appearance of metabolites. […] Half-lives were calculated using GraphPad software, fitting to a single-phase exponential decay equation.
# When calculated half-life was longer than the duration of the experiment, the half-life was expressed as >the longest incubation time. The calculated half-life is also listed in parentheses. […]
# [5] = test system: 456 (395 non-mutant) kinases; assay: DiscoveRx KINOMEscan kinase profiling; assay type: binding; conditions: 1000 nM
# Protocol: The compound was screened using a single concentration of 1000 nM (>1000 times the 1050 on Cdk4). Results from this screen confirmed the high potency against Cdk4 and high selectivity versus Cdk2.
# [6] = test system: A2058 cells (CDK4/6-independent cell line); assay: Cell cycle arrest by propidium iodide flow cytometry, A2058; assay type: cell-based, human; conditions: 300 nM, 24 hours
# Source text: (§1) To test the ability of Cdk4/6 inhibitors to induce a clean G1-arrest, a cell based screening method was used consisting of two Cdk4/6-dependent cell lines (tHS68 and WM2664; Rb-positive) and one Cdk4/6-independent (A2058; Rb-negative) cell line. […] At the conclusion of the experiment, cells were harvested, fixed, and stained with propidium iodide (a DNA intercalator), which fluoresces strongly red (emission maximum 637 nm) when excited by 488 nm light. Samples were run on Dako Cyan flow cytometer and >10,000 events were collected for each sample. Data were analyzed using FlowJo 2.2 software developed by TreeStar, Inc.
# [7] = test system: tHS68 cells (CDK4/6-dependent cell line); assay: Cell cycle arrest by propidium iodide flow cytometry, tHS68; assay type: cell-based, human; conditions: 300 nM, 24 hours
# Source text: as §1
# [8] = test system: renal proximal tubule epithelial cells; assay: Caspase 3/7 activation in renal proximal tubule epithelial cells with cisplatin; assay type: cell-based, human; conditions: 30 nM-1 uM with cisplatin 25 uM, 50 uM, or 100 uM
# Protocol: Normal renal proximal tubule epithelial cells were obtained from American Type Culture Collection (ATCC, Manassas, Va.). Cells were grown in an incubator at 37° C. in a humidified atmosphere of 5% CO2 in Renal Epithelial Cell Basal Media (ATCC) supplemented with Renal Epithelial Cell Growth Kit (ATCC) in 37° C. humidified incubator. […] Caspase 3/7 activation was measured 24 hours later using the Caspase-Glo 3/7 Assay System (Promega, Madison, Wis.) by following the manufacturer's instructions.
# Normal renal proximal tubule epithelial cells were obtained from American Type Culture Collection (ATCC, Manassas, Va.). Cells were grown in an incubator at 37° C. in a humidified atmosphere of 5% CO2 in Renal Epithelial Cell Basal Media (ATCC) supplemented with Renal Epithelial Cell Growth Kit (ATCC) in 37° C. humidified incubator. […] For the γ-H2AX assay, cells were fixed, permeabilized, and stained with anti-γ-H2AX as per the γ-H2AX Flow Kit (Millipore) and quantitated by flow cytometry. Data was analyzed using FlowJo 2.2 software developed by TreeStar, Inc. Caspase 3/7 activation was measured using the Caspase-Glo 3/7 Assay System (Promega, Madison, Wis.) by following the manufacturer's instructions.
# [9] = test system: RB-negative SCLC cell lines (H69, H82, H209, H345, NCI417, or SHP-77); assay: EdU proliferation, RB-negative SCLC cell lines; conditions: 24 hours
smiles,measurement,setting,value
CN1CCN(c2ccc(Nc3ncc4cc5n(c4n3)C3(CCCCC3)CNC5=O)nc2)CC1 [Compound T],"inhibition of hematopoietic stem cells (HSC), EdU",[1],74%
same,"inhibition of multipotent progenitors (MPP), EdU",[1],90%
same,"reduction in EdU+ cell frequency, B cell progenitors",[1],> 80%
same,"reduction in EdU+ cell frequency, Mac1+G1+ myeloid cells",[1],46%
same,"reduction in EdU+ cell frequency, T cell progenitors",[1],> 99%
same,"reduction in EdU+ cell frequency, Ter119+ erythroid cells",[1],58%
same,"reduction in EdU+ cell frequency, lineage restricted myeloid (CMP, GMP and MEP) and lymphoid progenitors (CLP)",[1],76-92%
same,reduction of EdU+ cell frequency in unfractionated whole bone marrow cells,[1],~70%
same,DNA damage as measured by γ-H2AX formation,[2],attenuated DNA damage
same,"effect on proliferation (EdU, percent of cells in S-phase)",[3],inhibits the Rb-positive cell line (tHS68)
same,half-life in liver microsomes compared with PD0332991,[4],shorter half-life than PD0332991
same,number of 395 non-mutant kinases inhibited,[5]; inhibitory threshold of 65%,92
same,percent of 395 non-mutant kinases inhibited,[5]; inhibitory threshold of 65%,23.3%
same,number of 395 non-mutant kinases inhibited,[5]; inhibitory threshold of 90%,31
same,percent of 395 non-mutant kinases inhibited,[5]; inhibitory threshold of 90%,7.8%
same,number of 395 non-mutant kinases inhibited,[5]; inhibitory threshold of 99%,6
same,percent of 395 non-mutant kinases inhibited,[5]; inhibitory threshold of 99%,1.5%
same,effect on S-phase peak,[6],does not cause a loss of the S-phase peak
same,effect on S-phase peak,[7],causes a loss of the S-phase peak
same,caspase 3/7 activation,[8],dose-dependent reduction in caspase 3/7 activation
same,"effect on proliferation (EdU, percent of cells in S-phase)",[9],does not affect the growth of the Rb-negative cell lines
